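Each compound was tested at five concentrations against cells in 96-well plates for 48 hours. The concentration for 50% growth inhibition is given as GI50. Definition used: TGI = concentration required for complete inhibition of growth.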
Tests used:
Test in all cases: NCI anticancer screen, dose series, 48 h
RXF 393 renal = tested on: RXF 393 renal
RPMI-8226 leukemia = tested on: RPMI-8226 leukemia
SNB-19 CNS = tested on: SNB-19 CNS
HS 578T breast = tested on: HS 578T breast
EKVX NSCLC = tested on: EKVX NSCLC
786-0 renal = tested on: 786-0 renal
K-562 leukemia = tested on: K-562 leukemia
COLO 205 colon = tested on: COLO 205 colon
HOP-92 NSCLC = tested on: HOP-92 NSCLC
OVCAR-4 ovarian = tested on: OVCAR-4 ovarian
SW-620 colon = tested on: SW-620 colon
DU-145 prostate = tested on: DU-145 prostate
UACC-62 melanoma = tested on: UACC-62 melanoma
TK-10 renal = tested on: TK-10 renal
NCI/ADR-RES ovarian = tested on: NCI/ADR-RES ovarian
SR leukemia = tested on: SR leukemia
UO-31 renal = tested on: UO-31 renal
OVCAR-8 ovarian = tested on: OVCAR-8 ovarian
NCI-H522 lung = tested on: NCI-H522 lung
SF-539 CNS = tested on: SF-539 CNS
SK-OV-3 ovarian = tested on: SK-OV-3 ovarian
M14 melanoma = tested on: M14 melanoma
SF-268 CNS = tested on: SF-268 CNS
HCC-2998 colon = tested on: HCC-2998 colon
HOP-62 NSCLC = tested on: HOP-62 NSCLC
HCT-15 colon = tested on: HCT-15 colon
NCI-H23 lung = tested on: NCI-H23 lung
U251 CNS = tested on: U251 CNS
CAKI-1 renal = tested on: CAKI-1 renal
SN12C renal = tested on: SN12C renal
A498 renal = tested on: A498 renal
MOLT-4 leukemia = tested on: MOLT-4 leukemia
HL-60(TB) leukemia = tested on: HL-60(TB) leukemia
MALME-3M melanoma = tested on: MALME-3M melanoma
T-47D breast = tested on: T-47D breast
CCRF-CEM leukemia = tested on: CCRF-CEM leukemia
NCI-H226 lung = tested on: NCI-H226 lung
MDA-MB-435 = tested on: MDA-MB-435
UACC-257 melanoma = tested on: UACC-257 melanoma
MCF7 breast = tested on: MCF7 breast
PC-3 prostate = tested on: PC-3 prostate
ACHN renal = tested on: ACHN renal
IGROV1 ovarian = tested on: IGROV1 ovarian
HCT-116 colon = tested on: HCT-116 colon
OVCAR-5 ovarian = tested on: OVCAR-5 ovarian
A549 NSCLC = tested on: A549 NSCLC
MDA-MB-231 breast = tested on: MDA-MB-231 breast
OVCAR-3 ovarian = tested on: OVCAR-3 ovarian
SK-MEL-28 melanoma = tested on: SK-MEL-28 melanoma
KM12 colon = tested on: KM12 colon
HT29 colon = tested on: HT29 colon
SK-MEL-2 melanoma = tested on: SK-MEL-2 melanoma

**Q.** `C#C[C@]1(O)CC[C@H]2[C@@H]3CC=C4c5nc(Nc6ncccn6)sc5CC[C@]4(C)[C@H]3CC[C@@]21C` was tested. Which GI50 (RXF 393 renal) did it give?
**A.** The GI50 was 0.451 µM.

**Q.** What about the TGI (RXF 393 renal) of the same compound?
**A.** Its TGI is 1.69 µM.

**Q.** And the GI50 (RPMI-8226 leukemia)?
**A.** The GI50 was 0.421 µM.

**Q.** And the TGI (RPMI-8226 leukemia)?
**A.** The TGI was 2.11 µM.

**Q.** And the GI50 (SNB-19 CNS)?
**A.** The GI50 was 2.77 µM.

**Q.** What about the TGI (SNB-19 CNS) of the same compound?
**A.** The TGI was greater than 100 µM.

**Q.** What about the GI50 (HS 578T breast) of the same compound?
**A.** Its GI50 is 1.25 µM.

**Q.** And the TGI (HS 578T breast)?
**A.** The TGI was 4.14 µM.

**Q.** What about the GI50 (EKVX NSCLC) of the same compound?
**A.** Its GI50 is 2.99 µM.

**Q.** What about the TGI (EKVX NSCLC) of the same compound?
**A.** The TGI was greater than 100 µM.

**Q.** Which results are given for `C=C1c2c(C)nn(-c3ccc(OC)cc3)c2N(C)C23C[C@@H]1C1(C)c4c(C)nn(-c5ccc(OC)cc5)c4N(C)C(C)(C[C@H]12)C3` (some centres undefined)?
**A.** GI50 (786-0 renal): 4.23 µM; TGI (786-0 renal): 19.7 µM; GI50 (K-562 leukemia): 3.6 µM; TGI (K-562 leukemia): > 100 µM; GI50 (COLO 205 colon): 2.2 µM; TGI (COLO 205 colon): 5.11 µM; GI50 (HOP-92 NSCLC): 1.18 µM; TGI (HOP-92 NSCLC): 5.4 µM; GI50 (OVCAR-4 ovarian): 3.56 µM; TGI (OVCAR-4 ovarian): 54.6 µM; GI50 (SW-620 colon): 3.63 µM; TGI (SW-620 colon): > 100 µM; GI50 (DU-145 prostate): 4.38 µM; TGI (DU-145 prostate): > 100 µM; GI50 (UACC-62 melanoma): 2.86 µM; TGI (UACC-62 melanoma): > 100 µM; GI50 (TK-10 renal): 3.63 µM; TGI (TK-10 renal): 11.8 µM; GI50 (NCI/ADR-RES ovarian): 4.04 µM; TGI (NCI/ADR-RES ovarian): > 100 µM; GI50 (SR leukemia): 3.16 µM; TGI (SR leukemia): > 100 µM; GI50 (UO-31 renal): 2.61 µM; TGI (UO-31 renal): > 100 µM; GI50 (OVCAR-8 ovarian): 3.4 µM; TGI (OVCAR-8 ovarian): 39.3 µM; GI50 (NCI-H522 lung): 2.77 µM; TGI (NCI-H522 lung): 11 µM; GI50 (SF-539 CNS): 3.16 µM; TGI (SF-539 CNS): 16.8 µM; GI50 (RXF 393 renal): 1.9 µM; TGI (RXF 393 renal): 6.08 µM; GI50 (SK-OV-3 ovarian): 3.39 µM; TGI (SK-OV-3 ovarian): 16.2 µM; GI50 (M14 melanoma): 3.88 µM; TGI (M14 melanoma): > 100 µM; GI50 (SF-268 CNS): 3.63 µM; TGI (SF-268 CNS): 70.5 µM; GI50 (HCC-2998 colon): 4.07 µM; TGI (HCC-2998 colon): > 100 µM; GI50 (HOP-62 NSCLC): 4.28 µM; TGI (HOP-62 NSCLC): 18.9 µM; GI50 (HCT-15 colon): 3.11 µM; TGI (HCT-15 colon): > 100 µM; GI50 (NCI-H23 lung): 3.86 µM; TGI (NCI-H23 lung): 53.6 µM; GI50 (U251 CNS): 2.67 µM; GI50 (CAKI-1 renal): 2.67 µM; TGI (CAKI-1 renal): > 100 µM; GI50 (SNB-19 CNS): 4.34 µM; TGI (SNB-19 CNS): 55.8 µM; GI50 (SN12C renal): 3.65 µM; TGI (SN12C renal): > 100 µM; GI50 (A498 renal): 2.47 µM; TGI (A498 renal): 16.4 µM; GI50 (MOLT-4 leukemia): 2.6 µM; TGI (MOLT-4 leukemia): > 100 µM; GI50 (HL-60(TB) leukemia): 2.54 µM; TGI (HL-60(TB) leukemia): > 100 µM; GI50 (HS 578T breast): 6.23 µM; TGI (HS 578T breast): 77.4 µM; GI50 (MALME-3M melanoma): 3.24 µM; TGI (MALME-3M melanoma): > 100 µM; GI50 (T-47D breast): 1.81 µM; TGI (T-47D breast): > 100 µM; GI50 (CCRF-CEM leukemia): 3.41 µM; TGI (CCRF-CEM leukemia): > 100 µM; GI50 (NCI-H226 lung): 4.44 µM; TGI (NCI-H226 lung): 63 µM; GI50 (MDA-MB-435): 3.4 µM; TGI (MDA-MB-435): > 100 µM; GI50 (UACC-257 melanoma): 2.68 µM; TGI (UACC-257 melanoma): > 100 µM; GI50 (MCF7 breast): 2.69 µM; TGI (MCF7 breast): > 100 µM; GI50 (PC-3 prostate): 1.75 µM; TGI (PC-3 prostate): 7.77 µM; GI50 (ACHN renal): 3.3 µM; TGI (ACHN renal): 19 µM; GI50 (IGROV1 ovarian): 7.54 µM; TGI (IGROV1 ovarian): > 100 µM; GI50 (HCT-116 colon): 2.82 µM; TGI (HCT-116 colon): 12.8 µM; GI50 (OVCAR-5 ovarian): 11.3 µM; TGI (OVCAR-5 ovarian): > 100 µM; GI50 (A549 NSCLC): 2.69 µM; TGI (A549 NSCLC): 55.7 µM; GI50 (MDA-MB-231 breast): 3.11 µM; TGI (MDA-MB-231 breast): 15.7 µM; GI50 (OVCAR-3 ovarian): 3.27 µM; TGI (OVCAR-3 ovarian): > 100 µM; GI50 (SK-MEL-28 melanoma): 5.86 µM; TGI (SK-MEL-28 melanoma): > 100 µM; GI50 (KM12 colon): 3.75 µM; TGI (KM12 colon): > 100 µM; GI50 (HT29 colon): 3.24 µM; TGI (HT29 colon): > 100 µM; GI50 (SK-MEL-2 melanoma): 3.23 µM; TGI (SK-MEL-2 melanoma): 9.94 µM

Source: PubChem BioAssay (NCI)
